Source: patent publication US12723024B2 (priority 2021, dated 2026)
Read-outs that look alike come from different tables or passages of the source.

Legend:
[1] = Dynamic vapor sorption (DVS) test at 25° C.; format: physicochemical; details: for Desorp. (%) / Sorp. (%) / Water absorbed from 40% RH to 95% RH: 25° C.; for Desorp. (%) / Sorp. (%): cycle 40-0-95-0-40% RH; for XRPD after DVS test / Hygroscopicity: DVS at 25° C.; for Hygroscopicity: grade in words
[2] = Thermogravimetric analysis (TGA) weight loss; format: physicochemical; details: large scale batch
[3] = Thermogravimetric analysis (TGA) weight loss; format: physicochemical; details: salt screening sample, at the temperature given (80-200° C.)
Source text: (§1) According to the salt screening results (see Table 4), totally 19 potential salt hits were identified. All the potential salt hits were further investigated by Differential Scanning Calorimetry (DSC), Thermogravimetric analysis (TGA), H-NMR, Ion chromatography (IC), Karl Fischer titration (KF), and Polarized Light Microscopy (PLM) to confirm their identity and evaluate their physicochemical properties as shown in Table 5 below.

Crystallinity by XRPD = format: physicochemical
Experimental: (§2) Obtained suspensions were taken out and centrifuged. Solids obtained was analysed by XRPD. Salts with high or medium crystallinity were further characterized (see Table 5).
as §1

[4] = Hygroscopicity (water uptake) of salt hits; format: physicochemical; details: salt screening sample; for Hygroscopicity: grade in words
Source text: as §1

[5] = Salt screening (slurry crystallization); format: physicochemical; parameters: key to Salt screening result: (+) shows that a crystalline salt was formed; (−) physical mixtures; details: for Polymorph obtained in salt screening: XRPD; for Salt screening result: slurry 50° C. then 25° C.
Experimental: About 45 mg was added to a suitable solvent and different equivalents of acids were added under stirring at 50° C. for about 2 hours and then at 25° C. for at least 32 hours. Ethanol, acetone, and ACN were used as screening solvents. When no precipitation was obtained or only a few solids were obtained, the solutions were placed at 5° C. for crystallization.
as §2

[6] = format: physicochemical; details: for chemical purity (%): solid state
[7] = format: physicochemical; details: salt screening sample
Source text: as §1

[8] = at the temperature printed in the same cell (100-170° C.)
[9] = listed as hydrochloride salt (polymorph A)

## COc1cc(C(F)(F)F)c(OC)cc1[C@@H]1CCCNC1.O=C(O)C(O)C(O)C(=O)O [L-tartrate salt (Polymorph B, anhydrate), L-tartaric acid salt of (S)-3-(2,5-dimethoxy-4-(trifluoromethyl)phenyl)piperidine]
[1]; 0% RH
  Desorp. (%): 0.01%
  Sorp. (%): 0.04%
[1]; 10% RH
  Desorp. (%): 0.03%
  Sorp. (%): 0.06%
[1]; 20% RH
  Desorp. (%): 0.07%
  Sorp. (%): 0.08%
[1]
  Water absorbed from 40% RH to 95% RH: about 1.5%
  XRPD after DVS test: No form changes
  Hygroscopicity: slightly hygroscopic
[1]; 30% RH
  Desorp. (%): 0.10%
  Sorp. (%): 0.10%
[1]; 40% RH
  Desorp. (%): 0.13%
  Sorp. (%): 0.12%
[1]; 50% RH
  Desorp. (%): 0.19%
  Sorp. (%): 0.13%
[1]; 60% RH
  Desorp. (%): 0.29%
  Sorp. (%): 0.15%
[1]; 70% RH
  Desorp. (%): 0.48%
  Sorp. (%): 0.19%
[1]; 80% RH
  Desorp. (%): 0.67%
  Sorp. (%): 0.66%
[1]; 90% RH
  Desorp. (%): 1.18%
  Sorp. (%): 1.00%
[1]; 95% RH
  Desorp. (%): 1.60%
  Sorp. (%): 1.60%
[2]; [8]
  Weight loss (%) at Temperature (° C.): 0.4 at %
[2]; at the temperature printed in the same cell (100-170° C.), listed as L-tartrate salt Polymorph B
  Weight loss (%) at Temperature (° C.): about 0.4%
[3]
  Weight loss (%): 0.9%
Crystallinity by XRPD; large scale batch
  Crystallinity: High
Crystallinity by XRPD; large scale batch, listed as L-tartrate salt Polymorph B
  Crystallinity: high crystallinity
Crystallinity by XRPD; salt screening sample
  Crystallinity: High
[4]
  Hygroscopicity: None
[5]; ACN
  Polymorph obtained in salt screening: Polymorph B
  Salt screening result: +
[5]; Acetone
  Polymorph obtained in salt screening: Polymorph B
  Salt screening result: +
[5]; EtOH
  Polymorph obtained in salt screening: Polymorph B
  Salt screening result: +

## COc1cc(C(F)(F)F)c(OC)cc1[C@@H]1CCCNC1.Cl [HCl salt of (S)-3-(2,5-dimethoxy-4-(trifluoromethyl)phenyl)piperidine]
[1]; 0% RH
  Desorp. (%): 0.01%
  Sorp. (%): 0.00%
[1]; 10% RH
  Desorp. (%): 0.01%
  Sorp. (%): 0.01%
[1]; 20% RH
  Desorp. (%): 0.012%
  Sorp. (%): 0.01%
[1]
  Water absorbed from 40% RH to 95% RH: about 0.17%
[1]; 30% RH
  Desorp. (%): 0.03%
  Sorp. (%): 0.01%
[1]; 40% RH
  Desorp. (%): 0.03%
  Sorp. (%): 0.01%
[1]; 50% RH
  Desorp. (%): 0.04%
  Sorp. (%): 0.01%
[1]; 60% RH
  Desorp. (%): 0.04%
  Sorp. (%): 0.02%
[1]; 70% RH
  Desorp. (%): 0.04%
  Sorp. (%): 0.03%
[1]; 80% RH
  Desorp. (%): 0.07%
  Sorp. (%): 0.05%
[1]; 90% RH
  Desorp. (%): 0.12%
  Sorp. (%): 0.12%
[1]; 95% RH
  Desorp. (%): 0.19%
  Sorp. (%): 0.19%
[1]; [9]
  Hygroscopicity: non-hygroscopic
  XRPD after DVS test: No form changes
[2]; at the temperature (100-170° C.), listed as hydrochloride salt (polymorph A)
  Weight loss (%) at Temperature (° C.): about 0.3%
[2]; [8]
  Weight loss (%) at Temperature (° C.): 0.3 at %
[3]
  Weight loss (%): 0.08%
[6]; before storage
  Initial chemical purity (%): 99.8%
[6]; 25° C./92% RH, open container, 1 week
  chemical purity (%): 99.8%
[6]; 40° C./75% RH, open container, 1 week
  chemical purity (%): 99.8%
[6]; 60° C., tight container, 1 week
  chemical purity (%): 99.8%
[6]; stressed conditions: 25° C./92% RH, 40° C./75% RH, 60° C., 1 week
  Bulk stability: chemically and physically stable
Crystallinity by XRPD; large scale batch
  Crystallinity: High
Crystallinity by XRPD; large scale batch, listed as hydrochloride salt (polymorph A)
  Crystallinity: high crystallinity
Crystallinity by XRPD; salt screening sample
  Crystallinity: High
[4]
  Hygroscopicity: None
[5]; ACN
  Polymorph obtained in salt screening: Polymorph A
  Salt screening result: +
[5]; Acetone
  Polymorph obtained in salt screening: Polymorph A
  Salt screening result: +
[5]; EtOH
  Polymorph obtained in salt screening: Polymorph A
  Salt screening result: +

## COc1cc(C(F)(F)F)c(OC)cc1[C@@H]1CCCNC1.N[C@@H](CC(=O)O)C(=O)O [L-aspartate salt Polymorph A]
[7]
  Water content (% w/w): 7.0% w/w
[3]
  Weight loss (%): 3.9%
Crystallinity by XRPD; salt screening sample
  Crystallinity: High
[4]
  Hygroscopicity (water uptake % w/w): (~4.3%) % w/w
  Hygroscopicity: Hygroscopic
[5]; ACN
  Polymorph obtained in salt screening: Polymorph A
  Salt screening result: +
[5]; Acetone
  Salt screening result: −
[5]; EtOH
  Polymorph obtained in salt screening: Polymorph A
  Salt screening result: +

## COc1cc(C(F)(F)F)c(OC)cc1[C@@H]1CCCNC1.O=C(O)C[C@H](O)C(=O)O [L-malate salt Polymorph A]
[7]
  Water content (% w/w): 5.9% w/w
[3]
  Weight loss (%): 2.3%
Crystallinity by XRPD; salt screening sample
  Crystallinity: High
[4]
  Hygroscopicity (water uptake % w/w): (~0.3%) % w/w
[5]; ACN
  Polymorph obtained in salt screening: Polymorph A
  Salt screening result: +
[5]; Acetone
  Polymorph obtained in salt screening: Polymorph A
  Salt screening result: +
[5]; EtOH
  Polymorph obtained in salt screening: Polymorph A
  Salt screening result: +
